“And” between values parts separate entries of the source, which are not always exact repeats. Equal entries are not always repeated.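 Where inhibition never reached the appropriate level, the endpoint shown equals the highest concentration tested. Otherwise, values were interpolated linearly from a five-concentration, 48-hour dose response in 96-well plates. GI50 marks 50% less growth. TGI is the concentration that stops growth completely.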
Experiments:
Assay in all cases: NCI-60 cell line screen, 48 h
[1] = tested on: SK-OV-3 ovarian
[2] = tested on: CAKI-1 renal
[3] = tested on: SR leukemia
[4] = tested on: NCI-H226 lung
[5] = tested on: NCI/ADR-RES ovarian
[6] = tested on: MDA-N
[7] = tested on: MOLT-4 leukemia
[8] = tested on: BT-549 breast
[9] = tested on: HCC-2998 colon
[10] = tested on: M19-MEL melanoma

SMILES | TGI [1] [µM] | TGI [2] [µM] | TGI [3] [µM] | TGI [4] [µM] | TGI [5] [µM] | TGI [6] [µM] | TGI [7] | TGI [8] [µM] | TGI [9] [µM] | GI50 [3] [µM] | GI50 [10] [µM] | TGI [10] [µM] | GI50 [7] [µM] | GI50 [9] [µM] | GI50 [2] [µM] | GI50 [4] [µM] | GI50 [5] [µM] | GI50 [1] [µM] | GI50 [8] [µM]
O=C(O)CC(C(=O)O)C1c2ccccc2-c2ccccc21 (centres undefined) | > 100 | > 100 | > 100 | > 100 | > 100 | > 100 | > 100 µM | > 100 | > 100 | – | – | – | – | – | – | – | – | – | –
O=S(=O)(O)c1cc(N=Nc2cc(S(=O)(=O)O)c3ccccc3c2O)ccc1/C=C/c1ccc(N=Nc2cc(S(=O)(=O)O)c3ccccc3c2O)cc1S(=O)(=O)O | > 876 | > 756 | 70.6 | 594 | > 1000 | 359 | 51.1 µM and 82.5 µM | 552 | > 1000 | 32.8 | > 1000 | > 1000 | 36.3 | > 1000 | – | – | – | – | –
Nc1cc(S(=O)(=O)O)cc2cc(S(=O)(=O)O)c(N=Nc3ccc(-c4ccc(N=Nc5c(S(=O)(=O)O)cc6cc(S(=O)(=O)O)cc(N)c6c5O)cc4)cc3)c(O)c12 | > 100 | – | – | > 100 | > 100 | – | > 100 µM | – | > 100 | – | – | > 100 | – | – | – | – | – | – | –
C=C1C(=O)CCC1C(=O)O (centres undefined) | > 100 | – | > 100 | > 100 | > 100 | > 100 | > 100 µM | > 100 | > 100 | – | – | – | – | – | – | – | – | – | –
C=C(C)C(=O)OC1C(C(C)CCCO)=C(CO)CC2OC(=O)C(=C)C21 (centres undefined) | 95.7 | 31.3 | > 100 | > 100 | > 100 | 37.7 | 88.9 µM | 34.7 | 31.8 | – | – | – | – | – | – | – | – | – | –
COc1ccc(-c2nn(-c3ccc(NC(=O)Nc4ccc(Cl)c(Cl)c4)cc3)cc2-c2ccncc2)cc1Cl | – | 15.4 | 35.6 | > 100 | > 100 | – | > 100 µM | – | > 100 | 2.65 | – | – | 1.89 | 2.78 | 1.95 | 3.49 | 2.06 | – | –
C=C(C)C1CC2=C(O1)C(=O)c1ccccc1C2=O (centres undefined) | > 100 | 31.7 | – | – | – | – | 32.8 µM | – | 39.3 | – | – | – | – | – | – | – | – | – | –
C=C1C(=O)OC2/C=C(\C)C(=O)CC3OC(C)(C)OC3(C)CC(OC(=O)/C(C)=C/C)C12 (centres undefined) | > 100 | 10.3 | – | 63.6 | – | > 80.5 | 37.2 µM | 26.8 | 34.9 | – | – | – | – | – | – | – | – | – | –
OC(Cc1ccccc1)(Cc1ccccc1)c1ccccc1 | – | 47.7 | 80.8 | 34.2 | 71.6 | 29.2 | > 100 µM | 36.3 | – | – | – | – | – | – | – | – | – | – | –
O=C(/C=c1\oc(=O)/c(=C/C(=O)c2ccc(Cl)cc2)oc1=O)c1ccc(Cl)cc1 | > 100 | > 100 | > 100 | > 100 | > 100 | > 100 | 56 µM | 91 | > 100 | – | – | – | – | – | – | – | – | – | –
CC(C)(C)C1(c2ccc(C3(c4ccccc4)Oc4ccccc4S3)[nH]2)Oc2ccccc2S1 (centres undefined) | > 100 | > 100 | – | > 100 | – | – | > 100 µM | – | > 100 | – | – | > 100 | – | – | – | – | – | – | –
COc1cc(C(C)(C)C)cc(OC)c1C(O)(c1c(OC)cc(C(C)(C)C)cc1OC)c1c(OC)cc(C(C)(C)C)cc1OC | – | – | – | – | – | – | – | – | 1.36 | – | – | – | – | 0.429 | – | – | – | – | –
CCN=C=NCCCN(C)C | > 100 | > 100 | > 100 | > 100 | > 100 | > 100 | > 100 µM | > 100 | – | – | – | – | – | – | – | – | – | – | –
O=Nc1ccc(O)c2ncccc12 | 31.3 | 31.1 | > 100 | 42.8 | 18.3 | 6.01 | > 100 µM | 23 | 31.1 | – | – | 16.4 | – | – | – | – | – | – | –
C[N+]1(C)CCOC(O)(c2ccccc2)C1 (centres undefined) | > 100 | > 100 | > 100 | > 100 | > 100 | > 100 | > 100 µM | > 100 | – | – | – | – | – | – | – | – | – | – | –
Cc1ccc(P(c2ccc(C)cc2)c2ccc(C)cc2)cc1 | 95.9 | 98.5 | – | – | > 100 | 55.8 | 44.5 µM | > 100 | 36 | – | – | – | – | – | – | – | – | – | –
O=[N+]([O-])c1ccc(/C=N\Nc2ccc([N+](=O)[O-])cn2)cc1 | > 100 | – | – | > 100 | > 100 | > 100 | > 100 µM | > 100 | > 100 | – | – | – | – | – | – | – | – | – | –
C=C1CC23CCC4C(C)(C(=O)O)CCCC4(C)C2CCC1C3 (centres undefined) | > 100 | > 100 | 90.9 | > 100 | – | > 100 | – | > 100 | 78.6 | – | – | – | – | – | – | – | – | – | –
COc1ccc2[nH]c3c([N+](=O)[O-])ccc(Cl)c3c(=O)c2c1 | > 100 | 49.5 | – | > 100 | > 71.2 | > 55.6 | 12.8 µM | 32.1 | > 71.2 | – | – | – | – | – | – | – | – | – | –
COC1/C=C\OC2(C)Oc3c(C)c(O)c4c(O)c(c(/C=N\OCCCc5ccccc5)c(O)c4c3C2=O)NC(=O)/C(C)=C\C=C/C(C)C(O)C(C)C(O)C(C)C(OC(C)=O)C1C (centres undefined) | 15.4 | 15.2 | 5.98 | 7.09 | 13.4 | 13 | 10.5 µM | – | 25.6 | – | – | – | – | – | – | – | – | – | –
C=C(C)[C@@H]1CC[C@]2(C(=O)Nc3ccccn3)CC[C@]3(C)[C@H](CC[C@@H]4[C@@]5(C)CCCNC(C)(C)[C@@H]5CC[C@]43C)[C@@H]12 | 14.1 | 2.93 | – | 33.4 | 4.14 | – | – | – | – | – | – | – | – | – | 1.55 | 5.31 | 1.93 | 2.94 | –
CCN(CC)C(=S)SC(=S)N(CC)CC | > 100 | 99.7 | – | > 100 | > 100 | > 100 | > 72.8 µM | 77.4 | > 100 | – | – | – | – | – | – | – | – | – | –
CC(=O)c1cccc(Nc2c3ccccc3nc3occc23)c1 | 36 | 8.82 | > 100 | > 100 | 6.47 | > 100 | 51.6 µM | 54.3 | 25.2 | – | – | – | – | – | – | – | – | – | –
C=C(CN(C)C)C(=O)c1ccc(C)cc1C | 39.6 | 8.39 | 4.26 | 34.5 | 40.3 | 14.3 | 2.25 µM | 12.7 | 31.5 | – | – | 43.1 | – | – | – | – | – | – | –
CC(C)=CCc1c(O)ccc2c1OC1c3ccc(O)c(CC=C(C)C)c3OCC21 (centres undefined) | 35.1 | 25 | – | 30.7 | 32.2 | – | 16 µM | – | 26 | – | – | 24.2 | – | – | – | – | – | – | –
C[C@H](C(=O)N[C@@H](Cc1ccc(-c2ccccc2)cc1)C(=O)NC1CC(C)(C)N(C)C(C)(C)C1)c1ccc(-c2ccccc2)c(F)c1 | – | – | – | – | 4.19 | – | – | 3.25 | 3.42 | – | – | – | – | 1.74 | – | – | 1.77 | – | 1.62

Source: PubChem BioAssay (NCI)
